For assay [1], the system named is Human Herpesvirus type 1 (HHV-1). The assay can be described thus: End-point titration technique (EPTT), anti-herpetic screening on infected Vero cells. Format: cell-based. The following applies: for Rf (reduction factor of the viral titer), HHV-1: 1 TCID50, 48 h. How it is done:
The in vitro antiviral evaluation of the 27 substances against Human Herpesvirus type 1 (HHV-1) and 2 (HHV-2) was made on infected Vero cells, using the end-point titration technique (EPTT).
The antiviral activity of molecules against 1 and 10 Cell Culture Infectious Dose 50% (10TCID50) of HHV-1 and HHV-2, respectively, was determined using end-point titration technique (EPTT). Vero cells grown in 96-well plates at a density of 2.0 × 10^4 cells/well were incubated at 37 °C in 5% CO2 atmosphere until constitute 80% of cell monolayer. Then, viral suspensions of HHV-1 or HHV-2 with concentrations of 6.25 µg/mL to 50 µg/mL of compounds were performed in DMEM supplemented with 2% FBS containing 1% and 0.5% carboxymethylcellulose (CMC) for HHV-1 and HHV-2, respectively. Mixture was incubated during 15 minutes at room temperature and was added to the cell monolayer. After 48 h of incubation at 37 °C (5% CO2), the cytopathic effect was examined, the microplates were fixed with 3.5% formaldehyde and stained with 0.2% crystal violet. Two independent experiments by quadruplicate for each viral serotype and each were carried out. Positive controls, such as dextran sulfate (DS) and acyclovir (A) for early stages and late stages of infection, respectively, were included.

The next assay has as its system HHV-1. The assay can be described thus: HHV-1 viral entry assay on Vero cells (plaque reduction). The following applies: 0.1–0.8 µg/mL. Type of assay: cell-based, Human Herpesvirus 1. How it is done:
The effect of NQ 4 in the initial phases of the HHV-1 viral replication was done as previously described by Cardozo et al., 2011 [53]. In the attachment assay, pre-chilled (1 h at 4 °C) Vero cell monolayers were exposed to viruses (100 PFU/well) in presence or absence of the compound and were incubated for 2 h at 4 °C. After incubation, the substance and unbounded viruses were removed with cold PBS; cells were overlaid with CMC 1% and incubated for 72 h at 37 °C (5% CO2). In the entry assay, pre-chilled cells were infected with viruses (100 PFU/well) and incubated for 2 h at 4 °C. After this time, the unbound viruses were removed with cold PBS; cells were treated with different concentrations of pre-warmed compound, and then incubated for 1 h at 37 °C. Unabsorbed viruses were inactivated using citrate buffer (pH = 3.0) and then cells were washed with PBS, overlaid with CMC 1%, and incubated for 72 h at 37 °C (5% CO2). In both assays, further procedures were the same mentioned previously for the plaque reduction assay and dextran sulfate (DS) was included as positive control.
In these tests, the evaluated NQ 4 concentration range was from 0.1 to 0.8 µg/mL and the effective concentration fifty (EC50), the concentration that reduces the 50% of plaque forming units, was determined from dose-effect curves by linear regression methods for each compound. […]

A further assay concerns Vero. Nature of the assay: MTT cytotoxicity assay, non-tumor cells. Type of assay: cell-based, Cercopithecus aethiops. To be noted: Chlorocebus sabaeus. On the procedure:
The in vitro cytotoxicity evaluation of quinones was performed using the 3-(4,5 dimethylthiazol-2-yl)-2,5-diphenyltetrazolium bromide (MTT, Sigma, Cream Ridge, NJ, USA) assay as described by Betancur-Galvis et al. 2002 [22]. Briefly, Vero and HeLa cell lines were seeded at 2.0 × 10^3 cells per well of 96-well plates in DMEM supplemented with 10% of inactivated FBS, and were incubated for 24 h at 37 °C, 5% CO2. Then, each diluted molecule was added to the cells and incubated for further 48 h at 37 °C, 5% CO2. Jurkat cell line at 3 × 10^3 cells per well in a 96-well round-bottomed plate and diluted substances in RPMI-1640 medium (Sigma) supplemented with 10% FBS were plated simultaneously. After 48 h of treatment at 37 °C, 5% CO2, the media was carefully removed and 28 µL of MTT solution (4 mg/mL) was added to each well, and the plates were incubated for 2 h at 37 °C, 5% CO2. The DMSO was then added to dissolve the formed formazan crystals and absorbance was determined spectrophotometrically at 570 nm.
The minimal dilution of compound that caused 50% inhibition of the cells (IC50) was calculated by linear regression analysis of the dose-response curves generated from the absorbance data with the statistical GraphPad Prisma 5.0. IC50 values were expressed as the mean ± standard deviation (M ± SD) of two independent experiments done in quadruplicate.
Background: Tetrazolium dyes change colour on reduction, which living cells bring about.

SMILES strings stand for the structures. pIC50: −log10 of the molar value. Like-named read-outs stand apart in the source and are kept apart here. Where only a bound is given, the exact number is not on record here.

One may read the pIC50 as the IC50 on a negative log10 scale, so that one unit is a factor of ten. As a reminder, the IC50 is the concentration that gives 50% inhibition. For `CC(C)CCCc1ccc2c(c1)C(=O)C(Cl)=C(Cl)C2=O` [NQ 4], the “Rf (reduction factor of the viral titer), HHV-1” value in assay [1] was 1 × 10^2; in assay [1] (listed as 4), 10^2. Further, in assay [1] (Human alphaherpesvirus 1, 1 TCID50, 48 h, tested 6.25-50 µg/mL, read-out: 1 TCID50: non-toxic concentration that showed viral reduction factor, HHV-1), the minimal effective concentration was determined as 6.25 µg/mL. The “Effect on HHV-1 viral entry” value with HHV-1 is recorded as “not significant”. In the assay with Vero (Vero ATCC CCL-81, 48 h, MTT, read-out: IC50 ± SD, Vero), the negative-log IC50 (pIC50) was no more than 3.19. Moreover, the IC50 in the assay with Vero (non-tumoral Vero cells, data not shown, read-out: IC50 on Vero cells) was greater than 200 µg/mL.

The record behind these values is paper PMC6479402, “Anti-Herpetic, Anti-Dengue and Antineoplastic Activities of Simple and Heterocycle-Fused Derivatives of Terpenyl-1,4-Naphthoquinone and 1,4-Anthraquinone” (Molecules, 2019).
